Values of other authors, collected in patent publication US9526741B2, “Chemosensory receptor ligand-based therapies” (NaZura BioHealth, Inc., priority 2009, dated 2016).

System: GLP-1
Conditions: humans

OCCN1C[C@H](O)[C@@H](O)[C@H](O)[C@H]1CO [miglitol]
postprandial GLP-1 levels: increase
